Measurements as given in PubChem BioAssay (NCI).
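The compound was tested at five concentrations on cells cultured in 96-well plates, with a 48-hour exposure period. GI50 marks 50% less growth. TGI is the concentration that stops growth completely.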

Tests used:
Assay in all cases: DTP human tumour cell line panel, 48 h
[1] = test system: 786-0 renal
[2] = test system: HCT-116 colon
[3] = test system: HCT-15 colon
[4] = test system: HL-60(TB) leukemia
[5] = test system: IGROV1 ovarian
[6] = test system: SK-MEL-28 melanoma
[7] = test system: SK-MEL-5 melanoma
[8] = test system: SK-OV-3 ovarian
[9] = test system: SR leukemia
[10] = test system: EKVX NSCLC

## COc1ccc(Nc2nccc(N3CCN(c4c5ccc(Cl)cc5nc5ccc(OC)cc45)CC3)n2)cc1
[1]
  GI50: 5.4 µM
  TGI: 47.2 µM
[2]
  GI50: 3.87 µM
  TGI: > 100 µM
[3]
  GI50: 4480 nM
  TGI: > 100 µM
[4]
  GI50: 7.22 µM
  TGI: > 100 µM
[5]
  GI50: 42.4 µM
  TGI: > 100 µM
[6]
  GI50: 39500 nM
  TGI: > 100 µM
[7]
  GI50: 16.1 µM
  TGI: > 100 µM
[8]
  GI50: 53.1 µM
  TGI: > 100 µM
[9]
  GI50: 2920 nM
  TGI: > 100 µM

## O=C(O)c1ccccc1C(=O)c1ccc2c(c1)Cc1ccccc1-2
[1]
  TGI: > 100 µM
[10]
  TGI: > 100 µM
[2]
  TGI: > 100 µM
[3]
  TGI: > 100 µM
[5]
  TGI: > 100 µM
[6]
  TGI: > 100 µM
[7]
  TGI: > 100 µM
[8]
  TGI: > 100 µM
[9]
  TGI: > 100 µM

## CSc1ccc(N(C)c2nc(C)nc3c2CCC3)cc1
[1]
  GI50: < 0.01 µM
  TGI: 50 µM
[10]
  GI50: < 10 nM
  TGI: 82 µM
[3]
  GI50: < 10 nM
  TGI: > 100 µM
[4]
  GI50: < 0.01 µM
  TGI: < 0.01 µM
[5]
  GI50: < 0.01 µM
  TGI: > 100 µM
[6]
  GI50: 1380 nM
  TGI: 36.6 µM
[8]
  GI50: < 0.01 µM
  TGI: 16.1 µM
[9]
  GI50: < 10 nM
  TGI: 11.6 µM

## COc1ccc(C2Oc3c(c(O)cc4c3[C@H](c3ccc(O)cc3O)[C@H](O)C(c3ccc(O)c(O)c3)O4)C[C@@H]2O)cc1O (stereo partly specified)
[1]
  TGI: > 100 µM
[10]
  TGI: > 100 µM
[2]
  TGI: > 100 µM
[3]
  TGI: > 100 µM
[4]
  TGI: > 100 µM
[5]
  TGI: > 100 µM
[7]
  TGI: > 100 µM
[8]
  TGI: > 100 µM
[9]
  TGI: > 100 µM

## Cc1ccccc1/C=C/C(=O)c1ccccc1
[1]
  TGI: 29.9 µM
[10]
  TGI: 33.7 µM
[2]
  TGI: 31 µM
[3]
  TGI: > 10 µM
[5]
  TGI: 62.1 µM
[6]
  TGI: 33.9 µM
[7]
  TGI: > 10 µM
[8]
  TGI: 67.3 µM
[9]
  TGI: > 100 µM

## Cc1cccc(/C(Br)=C2/OC(=O)c3ccccc32)c1
[1]
  TGI: > 100 µM
[10]
  TGI: > 100 µM
[2]
  TGI: > 100 µM
[3]
  TGI: > 100 µM
[5]
  TGI: > 100 µM
[6]
  TGI: > 100 µM
[7]
  TGI: > 100 µM
[8]
  TGI: > 100 µM
[9]
  TGI: > 100 µM

## C=C1C2Oc3ccccc3C1N(c1ccccc1)O2 (stereo unspecified)
[1]
  TGI: > 100 µM
[10]
  TGI: > 100 µM
[2]
  TGI: 54.2 µM
[3]
  TGI: > 100 µM
[4]
  TGI: > 100 µM
[5]
  TGI: > 100 µM
[6]
  TGI: > 100 µM
[8]
  TGI: > 100 µM
[9]
  TGI: > 100 µM

## CC(C)(C)OC(=O)NC1CCCC1=O (stereo unspecified)
[1]
  TGI: > 100 µM
[10]
  TGI: > 100 µM
[2]
  TGI: > 100 µM
[6]
  TGI: > 100 µM
[7]
  TGI: > 100 µM
[8]
  TGI: > 100 µM
[9]
  TGI: > 100 µM

## O=S1CSSC1
[1]
  TGI: 47 µM
[10]
  TGI: 77.8 µM
[2]
  TGI: 31.7 µM
[4]
  TGI: 61.5 µM
[5]
  TGI: 54.9 µM
[6]
  TGI: 59.8 µM
[8]
  TGI: 53.3 µM
[9]
  TGI: 47.2 µM

## c1ccc2[nH]c(CNc3ccc(C4C[Se]N=N4)cc3)nc2c1 (stereo unspecified)
[1]
  TGI: > 100 µM
[2]
  TGI: > 100 µM
[3]
  TGI: > 100 µM
[4]
  TGI: 77.7 µM
[5]
  TGI: > 100 µM
[6]
  TGI: > 100 µM
[7]
  TGI: 46.4 µM
[8]
  TGI: > 100 µM
[9]
  TGI: 36 µM

## OCc1ccc(N2CCOCC2)cc1Cl
[1]
  GI50: > 100 µM
  TGI: > 100 µM
[2]
  GI50: 28.6 µM
  TGI: > 100 µM
[3]
  GI50: > 100000 nM
  TGI: > 100 µM
[4]
  GI50: > 100 µM
  TGI: > 100 µM
[5]
  GI50: 6.73 µM
  TGI: 32.6 µM
[6]
  GI50: > 100000 nM
  TGI: > 100 µM
[7]
  GI50: > 91.2 µM
  TGI: > 100 µM
[8]
  GI50: > 100 µM
  TGI: > 100 µM
[9]
  GI50: > 100000 nM
  TGI: > 100 µM

## [2H]c1nc(=Nc2cc(NC(=O)C=C)c(N(C)CCN(C)C)cc2OC)[nH]c(-c2cn(C([2H])([2H])[2H])c3ccccc23)c1[2H]
[1]
  GI50: 1.34 µM
  TGI: 2.68 µM
[10]
  GI50: 853 nM
  TGI: 11.5 µM
[2]
  GI50: 1.48 µM
  TGI: 2.83 µM
[3]
  GI50: 1440 nM
  TGI: 3.05 µM
[4]
  GI50: 0.848 µM
  TGI: 2.5 µM
[5]
  GI50: 0.122 µM
  TGI: 2.04 µM
[6]
  GI50: 1780 nM
  TGI: 3.33 µM
[7]
  GI50: 1.64 µM
  TGI: 3 µM
[9]
  GI50: 1230 nM
  TGI: 4.02 µM

## Nc1ccccc1C(=O)C(Br)C(Br)c1ccc2c(c1)OCO2 (stereo unspecified)
[1]
  TGI: > 100 µM
[10]
  TGI: 52 µM
[2]
  TGI: 31.1 µM
[3]
  TGI: 48.1 µM
[4]
  TGI: > 100 µM
[5]
  TGI: > 100 µM
[6]
  TGI: 70.4 µM
[8]
  TGI: 84.4 µM
[9]
  TGI: > 100 µM

## Cc1ccc2oc(=O)c(-c3ccccc3)nc2c1
[1]
  TGI: > 100 µM
[10]
  TGI: > 100 µM
[2]
  TGI: > 100 µM
[3]
  TGI: 96.9 µM
[6]
  TGI: > 100 µM
[7]
  TGI: > 100 µM
[9]
  TGI: > 100 µM

## O=C1CNS(=O)(=O)N1
[1]
  TGI: > 100 µM
[10]
  TGI: > 100 µM
[2]
  TGI: > 100 µM
[4]
  TGI: > 100 µM
[5]
  TGI: > 100 µM
[6]
  TGI: > 100 µM
[8]
  TGI: > 100 µM
[9]
  TGI: > 100 µM

## Cc1c(C)c(CC(=O)N2CC2)c(C)c(C)c1CC(=O)N1CC1
[1]
  TGI: > 65.9 µM
[10]
  TGI: 65.8 µM
[2]
  TGI: 28.5 µM
[3]
  TGI: > 58.2 µM
[4]
  TGI: 10.3 µM
[5]
  TGI: 43.2 µM
[6]
  TGI: 37.6 µM
[8]
  TGI: 99.5 µM
[9]
  TGI: 4.79 µM

## CN1c2ccccc2SC2C(c3ccccc3)=NOC21 (stereo unspecified)
[1]
  TGI: > 100 µM
[10]
  TGI: > 100 µM
[2]
  TGI: 60.7 µM
[3]
  TGI: 43.7 µM
[4]
  TGI: > 100 µM
[5]
  TGI: > 100 µM
[6]
  TGI: > 100 µM
[8]
  TGI: > 100 µM
[9]
  TGI: > 100 µM
